From patent publication US20240382612A1, “BIOACTIVE CONJUGATE, PREPARATION METHOD THEREFOR AND USE THEREOF” (priority 2017, published 2024)

Assays:
Format in all cases: in vivo, Balb/c-nu mice
[1] = system: human gastric cancer cell line NCI-N87; experiment: Experimental example 1: NCI-N87 gastric cancer subcutaneous xenograft, tumor inhibition; details: D21 after administration; IV, BIW×3W; BT001021 and Immu-132 3 mg/kg, toxins T-030 and SN-38 equimolar to ADC
Method: (§1) Tumor-bearing mice (6 mice/group) with tumor volume of 100-200 mm^3 were randomly grouped (the number of groups was determined according to sample number). The administration volume was 10 ml/kg, and the administration route was tail intravenous injection. The mice were administered twice a week, and tumor diameter was measured with a vernier caliper, and tumor volume was calculated based on the following calculation formula: V=0.5 a×b^2, wherein a and b stand for the long diameter and short diameter of a tumor respectively. Animal deaths were observed and recorded every day.
(§2) The tumor growth inhibition rate TGI (%) was calculated from the following formula to evaluate tumor inhibitory effect of antibody drug conjugates:
(§3) Specifically, in the experimental examples 1 and 2, tumor-bearing mice models were constructed by subcutaneous xenograft of a human gastric cancer cell line NCI-N87 or a human triple negative breast cancer cell line HCC1806. After the tumor volume was about 100 mm^3, the mice were randomly grouped, and intravenously administered with BT001021 twice a week for a total of 6 times. Changes in tumor volume and animal body weight were measured twice a week to evaluate the efficacy (tumor inhibitory effect) of the antibody drug conjugate on tumor-bearing mice.
NCI-N87 cells were cultured in a 1640 culture medium containing 10% fetal bovine serum at 37° C. and 5% CO2. NCI-N87 cells in the exponential growth stage were collected, resuspended in PBS to a suitable concentration, and inoculated subcutaneously into female Balb/c-nu mice to construct gastric cancer models. When the mean tumor volume was about 90 mm^3, the mice were randomly grouped into a physiological saline group, a BT001021 (3 mg/kg, IV, BIW×3W) group, a positive drug Immu-132 (3 mg/kg, IV, BIW×3W) group, a T030 group and a SN38 group according to the tumor size, followed by tail intravenous injection of corresponding drugs twice a week for a total of 6 times. After administration, the tumor volume and body weight of the mice were observed and measured regularly.

[2] = system: human non-small cell lung cancer cell line HCC827; experiment: Experimental example 3: HCC827 non-small cell lung cancer subcutaneous xenograft, tumor inhibition; details: D21 after administration; 10 mg/kg, IV, BIW×3W
Method: as §1, §2
The experimental example 3 was used to evaluate the inhibitory effect of BT001021 and BT001035 on proliferation of tumor-bearing mice models constructed by subcutaneous xenograft human tumor cells of HCC827 non-small cell lung cancer. […] Then changes in tumor volume and animal body weight were measured twice a week to calculate the efficacy (tumor inhibitory effect) of BT001021 and BT001035 on the tumor-bearing mice.
HCC827 cells were cultured in a 1640 culture medium containing 10% fetal bovine serum at 37° C. and 5% CO2. […] After administration, the tumor volume and body weight of the mice were observed and measured regularly. […]

[3] = system: human breast cancer cell line HCC1806; experiment: Experimental example 2: HCC1806 breast cancer subcutaneous xenograft, tumor inhibition; details: 10 mg/kg, IV, BIW×3W
Method: as §1, §2, §3
HCC1806 cells were cultured in a 1640 culture medium containing 10% fetal bovine serum at 37° C. and 5% CO2. HCC1806 cells in the exponential growth stage were collected, resuspended in PBS in a suitable concentration, and inoculated subcutaneously into female Balb/c-nu to construct breast cancer models. When the mean tumor volume was about 130 mm^3, the mice were randomly grouped into a physiological saline group, a BT001021 (10 mg/kg, IV, BIW×3W) group and a positive drug Immu-132 (10 mg/kg, IV, BIW×3W) group according to the tumor size, followed by tail intravenous injection of corresponding drugs twice a week for a total of […]. After administration, the tumor volume of the mice was observed and measured regularly.

Immu-132: positive drug; ADC prepared according to example 2 of WO2015/012904A2, DAR=5.4
Tumor Volume (mm^3) (x ± S) [1]: 259.04 ± 42.41 mm^3
Tumor growth inhibition rate (%) [1]: 46.46%
TGI (%) [2]: 85.19%
Tumor Volume (mm^3) (x ± S) [2]: 145.94 ± 19.72 mm^3
tumor growth of xenograft model mice (result in words) [3]: did not show significant inhibitory activity
Tumor Volume (mm^3) (x ± S) ([3]; D17 after administration): 2347.05 ± 317.79 mm^3
Tumor growth inhibition rate (%) ([3]; D17 after administration): 11.62%
